Test results published in US10709707B2, “Methods of treating ocular conditions” (Oyster Point Pharma, Inc., priority 2016, dated 2020).
“Also recorded” adds a separate entry of the source.

Assays:
[1] = tested on: general behavior (Irwin profile); test: CNS safety pharmacology, general behavior (Irwin profile); type: in vivo, Rat: Sprague-Dawley
[2] = target: remaining muscarinic subtypes; test: Follow-up dose response binding assay (CEREP)
[3] = 7-day pilot intranasal toxicity and toxicokinetic study in rats; details: for AUC(0-t): AUC0-t
Method: The study design was as follows:
The following parameters and end points were evaluated in this study; clinical signs, body weights, body weight gain, food consumption, ophthalmology, toxicokinetic parameters, gross necropsy findings, organ weights, and histopathologic examination of select tissues, including nasal cavity at levels I-IV and detailed ocular histopathology for all dose groups: histopathology for brain, pharynx, larynx, trachea, lung, and select target tissues (i.e., adrenal gland, liver, and spleen) that were identified in a GLP 13-week oral toxicity study in rats (DSE 2004-0356) in group 1 and 4 animals, and gross lesions.

[4] = 13-week repeat-dose oral toxicity in Cynomolgus monkeys; type: in vivo, Cynomolgus monkey; details: for AUC / Cmax: plasma, po, at the NOAEL (30 mg/kg); for incidence of mild interstitial vacuolization in the heart: 60 mg/kg
Method: Compound 1 was given to Cynomolgus monkeys once daily for at least 13 weeks via oral gavage at doses of 10, 30, or 60 mg/kg/day. At the end of the dosing period, 2 monkeys per sex in the high-dose and control dose groups were selected for a recovery of 4 weeks. […] In the surviving monkeys at 60 mg/kg/day, clinical observations included emesis, decreased motor activity, body weight loss, slight increases in QT (up to +16%), QTcB (up to +9.2%), and QTcF (up to +11%) intervals that were associated with slight decreases in heart rate. These findings had resolved by the end of the 4-week recovery period. […] At 30 mg/kg, all animals had emesis, but they had fewer episodes of emesis than the animals dosed at 60 mg/kg. The dose of 30 mg/kg was well tolerated and was considered the NOAEL, Cmax and AUC increased less than proportionally at doses between 10 and 30 mg/kg.

[5] = Cardiovascular safety, guinea pig iv; type: in vivo; details: guinea pig, in vivo; intravenous
[6] = tested on: blood pressure, heart rate, ECG; test: Cardiovascular safety, guinea pig iv; type: in vivo
Ames test = type: cell-based; details: in vitro
Description: Compound 1 was negative for mutagenicity in both in vitro bioassays—including an Ames test, a micronucleus test in mouse lymphoma cells, and a chromosome aberration assay using cultured human peripheral blood lymphocytes—and an in vivo rat bone marrow micronucleus test.

[7] = single-dose nasal spray tolerability and PK in rabbits; type: in vivo, New Zealand White rabbit; details: male rabbits
Method: The potential toxicity and TK of Compound 1 nasal spray was assessed following a single spray (100 μL) of either 2% or 5% Compound 1 in the right nostril of male New Zealand White rabbits (N=36). Phosphate buffered solution (PBS) served as the control and was sprayed (100 μL) in the left nostril. Bioanalytical and histopathological analyses were conducted at 1, 3, 6, 9, and 24 h post-treatment. Prior to sacrifice, the intranasal/nasal area of each animal was assessed using the Draize Classification System for Scoring Skin Irritation.

a6/a3b2b3 = a6/a3b2b3 (Homo sapiens, UniProt P17787+P32297+Q15825); test: Receptor binding a6/a3b2b3
plasma protein binding = type: in vitro ADME; details: mouse, rat, guinea pig, dog, monkey and human plasma; concentrations up to about 113 μM
[8] = Female, Day 1, 0.9 mg/day (0.5%), intranasal TID
[9] = Female, Day 1, 3.6 mg/day (2%), intranasal TID
[10] = Female, Day 1, 10.8 mg/day (6%), intranasal TID
[11] = Female, Day 7, 0.9 mg/day (0.5%), intranasal TID
[12] = Female, Day 7, 3.6 mg/day (2%), intranasal TID
[13] = Female, Day 7, 10.8 mg/day (6%), intranasal TID
[14] = Male, Day 1, 0.9 mg/day (0.5%), intranasal TID
[15] = Male, Day 1, 3.6 mg/day (2%), intranasal TID
[16] = Male, Day 1, 10.8 mg/day (6%), intranasal TID
[17] = Male, Day 7, 0.9 mg/day (0.5%), intranasal TID
[18] = Male, Day 7, 3.6 mg/day (2%), intranasal TID
[19] = Male, Day 7, 10.8 mg/day (6%), intranasal TID
[20] = female, rat, plasma, inhaled or intranasal, 0.9 mg/day, Female, Day 1, 0.9 mg/day (0.5%), intranasal TID
[21] = female, rat, plasma, inhaled or intranasal, 0.9 mg/day, Female, Day 7, 0.9 mg/day (0.5%), intranasal TID
[22] = female, rat, plasma, inhaled or intranasal, 3.6 mg/day, Female, Day 1, 3.6 mg/day (2%), intranasal TID
[23] = female, rat, plasma, inhaled or intranasal, 3.6 mg/day, Female, Day 7, 3.6 mg/day (2%), intranasal TID
[24] = female, rat, plasma, inhaled or intranasal, 10.8 mg/day, Female, Day 1, 10.8 mg/day (6%), intranasal TID
[25] = female, rat, plasma, inhaled or intranasal, 10.8 mg/day, Female, Day 7, 10.8 mg/day (6%), intranasal TID
[26] = male, rat, plasma, inhaled or intranasal, 0.9 mg/day, Male, Day 1, 0.9 mg/day (0.5%), intranasal TID
[27] = male, rat, plasma, inhaled or intranasal, 0.9 mg/day, Male, Day 7, 0.9 mg/day (0.5%), intranasal TID
[28] = male, rat, plasma, inhaled or intranasal, 3.6 mg/day, Male, Day 1, 3.6 mg/day (2%), intranasal TID
[29] = male, rat, plasma, inhaled or intranasal, 3.6 mg/day, Male, Day 7, 3.6 mg/day (2%), intranasal TID
[30] = male, rat, plasma, inhaled or intranasal, 10.8 mg/day, Male, Day 1, 10.8 mg/day (6%), intranasal TID
[31] = male, rat, plasma, inhaled or intranasal, 10.8 mg/day, Male, Day 7, 10.8 mg/day (6%), intranasal TID
[32] = female, cynomolgus monkey, females
[33] = surviving monkeys, 60 mg/kg/day

Sequence of a6/a3b2b3 (Q15825+P32297 fused with the stated changes): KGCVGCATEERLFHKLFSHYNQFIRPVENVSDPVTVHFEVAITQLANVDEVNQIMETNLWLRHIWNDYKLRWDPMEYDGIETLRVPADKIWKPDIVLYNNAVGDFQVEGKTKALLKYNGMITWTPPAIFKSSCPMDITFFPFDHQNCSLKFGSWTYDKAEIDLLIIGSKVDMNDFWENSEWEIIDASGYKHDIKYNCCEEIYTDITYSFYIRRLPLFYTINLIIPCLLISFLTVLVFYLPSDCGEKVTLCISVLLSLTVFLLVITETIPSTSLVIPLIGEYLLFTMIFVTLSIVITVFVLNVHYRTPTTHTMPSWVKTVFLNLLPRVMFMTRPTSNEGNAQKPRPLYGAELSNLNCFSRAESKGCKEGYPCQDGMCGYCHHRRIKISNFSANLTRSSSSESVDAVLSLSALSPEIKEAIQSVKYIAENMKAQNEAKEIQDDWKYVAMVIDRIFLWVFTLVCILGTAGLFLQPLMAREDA
Sequence of a6/a3b2b3 (P17787 26-502): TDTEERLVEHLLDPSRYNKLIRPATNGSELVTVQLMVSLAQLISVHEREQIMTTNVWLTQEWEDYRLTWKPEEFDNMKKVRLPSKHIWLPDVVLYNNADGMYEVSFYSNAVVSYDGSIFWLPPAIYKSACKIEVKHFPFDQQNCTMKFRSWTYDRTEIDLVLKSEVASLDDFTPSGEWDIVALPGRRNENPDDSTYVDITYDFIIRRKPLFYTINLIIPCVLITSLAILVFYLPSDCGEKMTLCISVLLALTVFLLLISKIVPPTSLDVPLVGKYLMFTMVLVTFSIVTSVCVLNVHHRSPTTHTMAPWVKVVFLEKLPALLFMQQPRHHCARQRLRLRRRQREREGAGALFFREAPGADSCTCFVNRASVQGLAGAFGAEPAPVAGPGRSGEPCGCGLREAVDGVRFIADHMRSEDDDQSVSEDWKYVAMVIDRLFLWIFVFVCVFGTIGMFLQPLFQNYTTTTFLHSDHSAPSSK
Sequence of a6/a3b2b3 (Q05901 25-458 partner limits assumed): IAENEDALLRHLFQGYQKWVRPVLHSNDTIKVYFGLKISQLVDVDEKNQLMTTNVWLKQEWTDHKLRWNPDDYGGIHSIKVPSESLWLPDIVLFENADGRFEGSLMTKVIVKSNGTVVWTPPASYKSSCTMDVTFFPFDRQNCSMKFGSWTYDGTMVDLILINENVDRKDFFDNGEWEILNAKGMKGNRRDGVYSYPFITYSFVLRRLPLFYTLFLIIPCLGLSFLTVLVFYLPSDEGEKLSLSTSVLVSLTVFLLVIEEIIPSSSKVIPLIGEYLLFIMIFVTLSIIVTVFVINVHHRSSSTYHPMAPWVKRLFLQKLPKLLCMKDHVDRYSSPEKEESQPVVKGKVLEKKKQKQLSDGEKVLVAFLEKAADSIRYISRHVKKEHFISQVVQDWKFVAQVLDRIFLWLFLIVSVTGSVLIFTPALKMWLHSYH

C(=C\[C@H]1CCNC1)/c1cncnc1 [Compound 1, (R)-5-((E)-2-pyrrolidin-3-ylvinyl)pyrimidine]
NOEL, general behavior (Irwin profile) ([1]; 15, 50, 150 mg/kg po): greater than 150 mg/kg. | effect on general behavior (Irwin profile) ([1]; po, doses up to and including 100 mg/kg): no noteworthy changes; also recorded: Compound 1 had no effect on general | Ki [2]: > 10 µM | C1 (peak concentration following 1st instillation) [3, 8]: 26.1 ng/mL | C2 (peak concentration following 2nd instillation) [3, 8]: 34.8 ng/mL | C3 (peak concentration following 3rd instillation) [3, 8]: 34.9 ng/mL | DN AUC0-t (dose-normalized) [3, 8]: 154 (ng*h/mL)/(mg) | C1 (peak concentration following 1st instillation) [3, 9]: 50.2 ng/mL | C2 (peak concentration following 2nd instillation) [3, 9]: 119 ng/mL | C3 (peak concentration following 3rd instillation) [3, 9]: 278 ng/mL | DN AUC0-t (dose-normalized) [3, 9]: 174 (ng*h/mL)/(mg) | C1 (peak concentration following 1st instillation) [3, 10]: 326 ng/mL | C2 (peak concentration following 2nd instillation) [3, 10]: 481 ng/mL | C3 (peak concentration following 3rd instillation) [3, 10]: 329 ng/mL | DN AUC0-t (dose-normalized) [3, 10]: 386 (ng*h/mL)/(mg) | C1 (peak concentration following 1st instillation) [3, 11]: 20.3 ng/mL | C2 (peak concentration following 2nd instillation) [3, 11]: 16.3 ng/mL | C3 (peak concentration following 3rd instillation) [3, 11]: 37.5 ng/mL | DN AUC0-t (dose-normalized) [3, 11]: 164 (ng*h/mL)/(mg) | C1 (peak concentration following 1st instillation) [3, 12]: 68.0 ng/mL | C2 (peak concentration following 2nd instillation) [3, 12]: 79.9 ng/mL | C3 (peak concentration following 3rd instillation) [3, 12]: 76.0 ng/mL | DN AUC0-t (dose-normalized) [3, 12]: 93.5 (ng*h/mL)/(mg) | C1 (peak concentration following 1st instillation) [3, 13]: 218 ng/mL | C2 (peak concentration following 2nd instillation) [3, 13]: 224 ng/mL | C3 (peak concentration following 3rd instillation) [3, 13]: 210 ng/mL | DN AUC0-t (dose-normalized) [3, 13]: 137 (ng*h/mL)/(mg) | C1 (peak concentration following 1st instillation) [3, 14]: 51.9 ng/mL | C2 (peak concentration following 2nd instillation) [3, 14]: 36.3 ng/mL | C3 (peak concentration following 3rd instillation) [3, 14]: 54.2 ng/mL | C1 (peak concentration following 1st instillation) [3, 15]: 86.4 ng/mL | C2 (peak concentration following 2nd instillation) [3, 15]: 343 ng/mL | C3 (peak concentration following 3rd instillation) [3, 15]: 134 ng/mL | DN AUC0-t (dose-normalized) [3, 15]: 230 (ng*h/mL)/(mg) | C1 (peak concentration following 1st instillation) [3, 16]: 208 ng/mL | C2 (peak concentration following 2nd instillation) [3, 16]: 332 ng/mL | C3 (peak concentration following 3rd instillation) [3, 16]: 924 ng/mL | DN AUC0-t (dose-normalized) [3, 16]: 157 (ng*h/mL)/(mg) | C1 (peak concentration following 1st instillation) [3, 17]: 12.4 ng/mL | C2 (peak concentration following 2nd instillation) [3, 17]: 28.0 ng/mL | C3 (peak concentration following 3rd instillation) [3, 17]: 33.7 ng/mL | C1 (peak concentration following 1st instillation) [3, 18]: 110 ng/mL | C2 (peak concentration following 2nd instillation) [3, 18]: 53.8 ng/mL | C3 (peak concentration following 3rd instillation) [3, 18]: 25.5 ng/mL | DN AUC0-t (dose-normalized) [3, 18]: 82.7 (ng*h/mL)/(mg) | C1 (peak concentration following 1st instillation) [3, 19]: 166 ng/mL | C2 (peak concentration following 2nd instillation) [3, 19]: 209 ng/mL | C3 (peak concentration following 3rd instillation) [3, 19]: 225 ng/mL | DN AUC0-t (dose-normalized) [3, 19]: 81.3 (ng*h/mL)/(mg) | half-life ([3]; both, rat, plasma, inhaled or intranasal): 1.4 h | AUC(0-t) [3, 20]: 0.138 µg·h/mL | AUC(0-t) [3, 21]: 0.148 µg·h/mL | Cmax [3, 20]: 0.0349 µg/mL | Cmax [3, 21]: 0.0375 µg/mL | Tmax [3, 20]: 12.1 h | Tmax [3, 21]: 12.1 h | AUC(0-t) [3, 22]: 0.626 µg·h/mL | AUC(0-t) [3, 23]: 0.336 µg·h/mL | Cmax [3, 22]: 0.278 µg/mL | Cmax [3, 23]: 0.0799 µg/mL | Tmax [3, 22]: 12.1 h | Tmax [3, 23]: 6.08 h | AUC(0-t) [3, 24]: 4.17 µg·h/mL | AUC(0-t) [3, 25]: 1.48 µg·h/mL | Cmax [3, 24]: 0.481 µg/mL | Cmax [3, 25]: 0.224 µg/mL | Tmax [3, 24]: 6.08 h | Tmax [3, 25]: 6.08 h | Cmax [3, 26]: 0.0542 µg/mL | Cmax [3, 27]: 0.0337 µg/mL | Tmax [3, 26]: 12.1 h | Tmax [3, 27]: 12.1 h | AUC(0-t) [3, 28]: 0.829 µg·h/mL | AUC(0-t) [3, 29]: 0.298 µg·h/mL | Cmax [3, 28]: 0.343 µg/mL | Cmax [3, 29]: 0.11 µg/mL | Tmax [3, 28]: 6.08 h | Tmax [3, 29]: 0.083 h | AUC(0-t) [3, 30]: 1.7 µg·h/mL | AUC(0-t) [3, 31]: 0.878 µg·h/mL | Cmax [3, 30]: 0.924 µg/mL | Cmax [3, 31]: 0.225 µg/mL | Tmax [3, 30]: 12.1 h | Tmax [3, 31]: 12.1 h | time of peak systemic exposure after each instillation ([3]; rat, intranasal TID, post administration): 5 min | survival ([3]; rats, intranasal 0.5%, 2% and 6%, 3 times per day for 7 days): survival of all animals to scheduled euthanasia | no-observed-adverse-effect-level (NOAEL) ([3]; rats, intranasal 3 times per day for 7 days): 180 μL 6% Compound 1 per animal per day | NOAEL at 13 weeks ([4]; both sexes, cynomolgus monkey, in vivo, Cynomolgus monkeys, oral gavage once daily, 13 weeks): 30 mg/kg | AUC [4, 32]: 2.44 µg·h/mL | Cmax [4, 32]: 0.696 µg/mL | incidence of mild interstitial vacuolization in the heart ([4]; females): 2 of 3 | AUC ([4]; male, cynomolgus monkey, males): 1.67 µg·h/mL | Cmax ([4]; male, cynomolgus monkey, males): 0.382 µg/mL | incidence of mild interstitial vacuolization in the heart ([4]; males): 1 of 2 | body weight loss vs. Day 1 value ([4]; one monkey at 60 mg/kg/day sacrificed during the fourth week): −22% | increase in QT interval [4, 33]: up to +16% | increase in QTcB interval [4, 33]: up to +9.2% | increase in QTcF interval [4, 33]: up to +11% | MTD [5]: 0.3 mg/kg | effects on QTc ([6]; 1 mg/kg iv): doses up to 0.3 mg/kg, mild and reversible | lethality ([6]; 10 mg/kg iv): 10 mg/kg was lethal. | peak increase in heart rate ([6]; 1, 3, and 10 mg/kg iv): rate was 41 beats per minute. | peak increase in systolic blood pressure ([6]; 1, 3, and 10 mg/kg iv): 58 mmHg; and the peak increase in heart | time in which effects resolved ([6]; 1 and 3 mg/kg iv): 3 min | effects on QTc/ECG ([6]; 3 and 10 mg/kg iv): effects on QTc at 1 mg/kg, and severe | effects on ECGs ([6]; doses up to 0.3 mg/kg iv): Compound 1 caused no effects on ECGs at | mutagenicity, Ames test (Ames test): negative | intranasal/nasal assessment (Draize) ([7]; single 100 μL spray of 2% or 5%): no signs of erythema, edema, eschar formation or discharge | clinical signs ([7]; single 100 μL spray of 2% or 5% in right nostril): No clinical signs were observed | histopathology of the nasal cavity ([7]; single 100 μL spray of 2% or 5%, 1 to 24 h post-treatment): no macroscopic or microscopic findings | Ki (a6/a3b2b3): 0.24 µM | fraction unbound (plasma protein binding): > 0.87
